In US20220235065A1 (Epizyme, Inc., priority 2016, published 2022):

Biological target: T1, recombinant purified human EHMT2 913-1193 (Homo sapiens, UniProt Q96KQ7)
T1 construct: Recombinant purified human EHMT2 913-1193 (55 μM) synthesized by Viva was used for all experiments; purchased Viva
T1 sequence (Q96KQ7 913-1193): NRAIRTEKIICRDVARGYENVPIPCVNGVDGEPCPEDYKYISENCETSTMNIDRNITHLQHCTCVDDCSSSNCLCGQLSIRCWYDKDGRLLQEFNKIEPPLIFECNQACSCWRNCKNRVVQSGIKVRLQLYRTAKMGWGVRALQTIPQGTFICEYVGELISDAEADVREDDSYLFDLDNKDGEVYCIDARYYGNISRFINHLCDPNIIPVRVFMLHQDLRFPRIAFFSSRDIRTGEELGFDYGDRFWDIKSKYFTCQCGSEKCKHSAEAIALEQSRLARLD
Assay: EHMT2 enzyme assay on histone peptide substrate (3H-SAM Flashplate)
Assay type: biochemical
Details: read-out: EHMT2 PEP (IC50 μM)
Procedure, shortened: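 Compounds (10-point 3-fold series, top 50 μM final, 2% DMSO) preincubated 30 min with 0.031 nM EHMT2 in 20 mM Bicine pH 7.5, 1 mM TCEP; reaction started with 3H-SAM and biotinylated H3 1-15 peptide, both at Km, run 60 min at room temperature. Flashplate capture; IC50 from four-parameter fit, triplicates.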

Row | IC50 [µM] | Structure (SMILES)
1 | > 10 | CNc1cc(C)nc(Nc2ccc(Cl)c(C(=O)Nc3ccnnc3)c2)n1 [Compound 245]
2 | 1 to 10 | CNc1cc(C)nc(Nc2ccc(Cl)c(C(=O)Nc3nccs3)c2)n1 [Compound 246]
3 | 1 to 10 | CNc1cc(C)nc(Nc2ccc(Cl)c(C(=O)Nc3cnccn3)c2)n1 [Compound 251]
4 | 1 to 10 | CNc1cc(C)nc(Nc2ccc(Cl)c(C(=O)Nc3ncccn3)c2)n1 [Compound 258]
5 | > 10 | CNc1cc(C)nc(Nc2ccc(Cl)c(C(=O)Nc3ccncn3)c2)n1 [Compound 259]
6 | 1 to 10 | CNc1cc(C)nc(Nc2ccc(C)c(-c3[nH]c4cnccc4c3C#N)c2)n1 [Compound 271]
7 | < 0.1 | CNc1cc(C)nc(Nc2ccc(C)c(-c3nc4ccncc4[nH]3)c2)n1 [Compound 279]
8 | > 10 | CNc1cc(C)nc(Nc2ccc(C)c(C(=O)Nc3cscn3)c2)n1 [Compound 280]
9 | < 0.1 | CNc1cc(C)nc(Nc2ccc(C)c(-n3cc4cnccc4n3)c2)n1 [Compound 282]
10 | < 0.1 | CNCc1cnn(-c2cc(Nc3nc(C)cc(NC)n3)ccc2C)c1 [Compound 286, N4,6-dimethyl-N2-(4-methyl-3-(4-((methylamino)methyl)-1H-pyrazol-1-yl)phenyl)pyrimidine-2,4-diamine]
11 | 1 to 10 | CNc1cc(C)nc(Nc2ccc(C)c(C(=O)Nc3cnccn3)c2)n1 [Compound 287]
12 | > 10 | CNc1cc(C)nc(Nc2ccc(C)c(C(=O)Nc3cn(C)nn3)c2)n1 [Compound 299]
13 | > 10 | CNc1cc(C)nc(Nc2ccc(C)c(C(=O)Nc3cn(C)cn3)c2)n1 [Compound 302]

The remaining lines, values behind:

Row | Structure (SMILES) | IC50 [µM]
14 | Cc1cc(NC2CCNCC2)ncc1-c1cc2[nH]ccc2cn1 [Compound 247] | 1 to 10
15 | CNc1cc(C)nc(Nc2ccc(Cl)c(-c3cc4[nH]ccc4cn3)c2)n1 [Compound 255] | < 0.1
16 | CNc1cc(C)nc(Nc2ccc(C)c(-c3cc4[nH]ccc4cn3)c2)n1 [Compound 256] | < 0.1
17 | CNc1nc2cc(-c3cc4[nH]ccc4cn3)c(C)cc2n1C [Compound 257] | 1 to 10
18 | CNc1cc(C)nc(Nc2ccc(Cl)c(-c3cc4c(cn3)CC(=O)N4)c2)n1 [Compound 260] | 1 to 10
19 | CNCc1cnn(-c2cc(Nc3nc(C)cc(NC)n3)ccc2Cl)c1 [Compound 262, N2-(4-chloro-3-(4-((methylamino)methyl)-1H-pyrazol-1-yl)phenyl)-N4,6-dimethylpyrimidine-2,4-diamine] | < 0.1
20 | CCc1ccc(Nc2nc(C)cc(NC)n2)cc1-c1cc2ccncc2[nH]1 [Compound 269] | < 0.1
21 | CNc1cc(C)nc(Nc2ccc(C)c(-c3cc4ccccc4[nH]3)c2)n1 [Compound 274] | > 10
22 | CCNc1c[nH]c(=O)c(-c2cc(Nc3nc(C)cc(NC)n3)ccc2C)c1 [Compound 276] | 1 to 10
23 | CNc1nc2cc(-c3cc4ccncc4[nH]3)c(C)cc2n1C [Compound 278] | < 0.1
24 | CNCc1cnn(-c2cc(Nc3nc(C)cc(NC)n3)ccc2OC)c1 [Compound 285] | < 0.1
25 | CNc1cc(C)nc(Nc2ccc(OC)c(-c3[nH]c4cnccc4c3C#N)c2)n1 [Compound 291] | 1 to 10
26 | CNc1cc(C)nc(Nc2ccc(OC)c(-c3cc4[nH]ccc4c(C#N)n3)c2)n1 [Compound 292] | 0.1 to 1
27 | CNc1cc(C)nc(Nc2ccc(OC)c(-c3cc4[nH]ccc4c(CNC(C)=O)n3)c2)n1 [Compound 293] | 0.1 to 1
28 | CNC1=Nc2cc(-c3cnc4cc[nH]c4c3)c(OC)cc2C12CCC2 [Compound 294] | < 0.1
29 | CNc1nc2cc(-c3cnc4cc[nH]c4c3)c(OC)cc2n1C [Compound 295] | 1 to 10
30 | CNc1cc(C)nc(Nc2ccc(OC)c(-c3cc4[nH]ccc4c(CN)n3)c2)n1 [Compound 296] | 0.1 to 1
31 | CNC1=Nc2cc(-c3cc4[nH]ccc4nc3C)c(OC)cc2C12CCC2 [Compound 300] | 0.1 to 1
32 | CNc1nc2cc(-c3[nH]c4cnccc4c3C)c(OC)cc2n1C [Compound 304] | 0.1 to 1
33 | COc1cc(NC2CCNC2)ccc1-c1[nH]c2cnccc2c1C (stereo not drawn) [Compound 305] | 0.1 to 1
